{
  "source": "patent US20230357242A1",
  "about": "“COMPOUND AS AKT KINASE INHIBITOR” (CHIA TAI TIANQING PHARMACEUTICAL GROUP CO., LTD., priority 2020, published 2023)",
  "key": {"LNcap cells": {"tested_on": "LNcap cells", "assay": "Inhibitory effect on proliferation of LNcap cells (CCK-8, 72 h)", "assay_type": "cell-based", "settings": "Homo sapiens, LNcap cells, CCK-8, read-out: LNcap cells IC50", "method": "A dish of LNcap cells (human prostate cancer cells with PTEN deficiency) growing at log phase and in good conditions were taken and digested for 3 min by using 1 mL of pancreatin, then the mixture was added with 4 mL of complete culture medium to terminate digestion, and the cells were added to a centrifuge tube. 20 μL of cells were taken and counted, the required number of cells (mL) was pipetted and centrifuged at 1200 rpm for 5 min, the supernatant was discarded, and an appropriate amount of plating medium (RPMI medium+5% FBS+1% sodium pyruvate+1% glutamine) was added to adjust the cell density to 3×10^4 cells/mL. The cells were seeded on a 96-well plate at 100 μL/well using a multi-channel pipette and cultured in a cell incubator at 37° C., 5% CO2 and saturated humidity. After incubation overnight, compounds were loaded using a nanoliter pipettor, 2 duplicate wells were set for each concentration, and cells without compound were used as negative controls. After 72 h, CCK-8 was added at 10 μL/well for incubation for 4 h, then absorbance was measured at 450 nm with an Envision plate reader, and inhibition rate was calculated. Inhibition rate (%)=(mean value of negative control group−mean value of experimental group)/(mean value of negative control group−mean value of blank group)×100%. A dose-response curve was fitted by four-parameter analysis, with the logarithm of compound concentration as abscissa and inhibition rate as ordinate, so that IC50 was calculated."}, "AKT1 (S473)": {"biological_target": "T1, AKT1 (S473) (Homo sapiens, UniProt P31749)", "T1 construct": "endogenous in cells; host or cells: LNcap cells", "T1 sequence (P31749 whole entry)": "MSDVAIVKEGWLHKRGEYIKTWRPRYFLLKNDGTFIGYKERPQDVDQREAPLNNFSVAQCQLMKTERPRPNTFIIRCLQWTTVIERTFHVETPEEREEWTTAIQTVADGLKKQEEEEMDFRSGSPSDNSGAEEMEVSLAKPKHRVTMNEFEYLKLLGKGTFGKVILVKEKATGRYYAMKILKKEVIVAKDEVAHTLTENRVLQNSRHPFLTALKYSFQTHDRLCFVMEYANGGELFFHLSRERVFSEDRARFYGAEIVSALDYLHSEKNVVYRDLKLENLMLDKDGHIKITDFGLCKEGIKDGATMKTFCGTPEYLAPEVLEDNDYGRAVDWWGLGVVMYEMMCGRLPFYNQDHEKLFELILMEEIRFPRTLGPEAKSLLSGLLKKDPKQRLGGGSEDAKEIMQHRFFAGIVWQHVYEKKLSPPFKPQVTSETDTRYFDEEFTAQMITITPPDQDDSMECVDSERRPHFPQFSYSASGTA", "assay": "Inhibitory effect on phosphorylation of LNcap cells AKT1 (S473)", "assay_type": "cell-based", "settings": "1 h incubation", "method": "LNcap cells AKT1 (S473) growing at log phase were taken, digested with 1 mL of pancreatin for 3 min, and added with 4 mL of complete medium to terminate digestion. The cells were added to a centrifuge tube. 20 μL of cells were taken and counted, the required number of cells (mL) was taken and centrifuged at 1200 rpm for 5 min, and a plating medium (2% FBS+phenol-free red 1640 base medium+1% sodium pyruvate+1% glutamine) was added to adjust the cell density to about 1×10E6 cells/mL. The cells were plated (96 wells) at the above cell density (100 μL/well), and cultured in a cell incubator at 37° C., 5% CO2 overnight; the next day, according to the plate distribution, the corresponding compound was sprayed using a nanoliter pipettor and incubated for 1 h at 37° C. in a cell incubator containing 5% CO2; the supernatant was discarded, and the plate was added with 40 μL of lysis buffer (1×) containing blocking buffer and incubated by shaking at room temperature for 30 min. After the mixture was mixed, 16 μL of lysate was transferred to another 384-well small-volume white plate. The plate was added with 4 μL of pre-mixed antibody (v/v) in assay buffer, covered, centrifuged to mix well, and incubated overnight at room temperature. The 665 nm/620 nm signal value was detected using a PE Envision multi-functional microplate reader, and IC50 was calculated by four-parameter fitting."}, "[1]": {"assay": "Pharmacokinetic evaluation in mice", "assay_type": "in vivo", "design": "Cl: unit not given here", "settings": "ICR mice; for AUC(0-inf) / AUC(0-t) / Cmax / Tmax / bioavailability / MRT last / Vd: mouse, plasma; for bioavailability: IG 10 mg/kg vs IV 1 mg/kg, read-out: Absolute bioavailability F %; for MRT last: read-out: MRT(0-t)", "method": "ICR mice, weight 18-22 g, after adaption for 3-5 days, were randomly divided into 4 groups of 9 mice, each group was intragastrically (IG) administered with compound 28 or compound 30 at a dose of 10 mg/kg, or intravenously (IV) administered with compound 28 or compound 30 at a dose of 1 mg/kg.\nThe animals to be tested (ICR mice) were fasted for 12 h before administration and food was provided 4 h after administration, and water was freely drunk before and after the experiment and during the experiment.\nAfter intragastric administration, about 0.1 mL of blood was taken from eye sockets at 15 min, 30 min, 1 h, 2 h, 3 h, 4 h, 6 h, 8 h, 10 h, and 24 h; after intravenous injection, about 0.1 mL of blood was taken from eye sockets at 5 min, 10 min, 30 min, 1 h, 2 h, 4 h, 6 h, 8 h, 10 h, and 24 h; each mouse was collected at 3-4 time points and 3 mice were collected at each time point, whole blood was collected, placed in centrifuge tubes containing EDTA-K2, and stored at 4° C. within 1 h, and the plasma was separated off by centrifugation at 4° C. and 4000 rpm for 10 min. All the plasma samples were collected and immediately stored at −20° C. for testing. 30 μL of the plasma sample to be tested and a standard curve sample were pipetted and added with 300 μL of acetonitrile solution containing an internal standard (20 ng/mL diazepam), shaken and mixed well for 5 min, and centrifuged at 13,000 rpm for 10 min. 80 μL of supernatant was taken and diluted with 80 μL of ultrapure water. After being mixed well, 2 μL of the resulting sample was taken for liquid chromatography-mass determination, and a chromatogram was recorded.\nOral and intravenous exposure of the compound of the present application was evaluated by in vivo pharmacokinetic experiment in mice."}},
  "note": "Where two headings read alike, the source gives them in different places.",
  "data": [
    {"smiles": "CC(=O)N1CC2(CCN(c3cccc(-c4ccc5nc(-c6cccnc6N)n(-c6ccc(C7(N)CCC7)cc6)c5n4)c3F)CC2)C1", "note": "[Compound 44]", "values": [
      {"measurement": "IC50", "setting": "LNcap cells", "value": 1.7, "unit": "nM"},
      {"measurement": "IC50", "setting": "AKT1 (S473)", "value": 12, "unit": "nM"},
      {"measurement": "t1/2z", "setting": "[1]; IG 10 mg/kg", "value": 3.61, "unit": "h"},
      {"measurement": "Cl", "setting": "[1]; IV 1 mg/kg", "value": 0.206},
      {"measurement": "t1/2z", "setting": "[1]; IV 1 mg/kg", "value": 1.34, "unit": "h"},
      {"measurement": "AUC(0-inf)", "setting": "[1]; po, IG 10 mg/kg", "value": 25100, "unit": "ng·h/mL"},
      {"measurement": "AUC(0-t)", "setting": "[1]; po, IG 10 mg/kg", "value": 25000, "unit": "ng·h/mL"},
      {"measurement": "Cmax", "setting": "[1]; po, IG 10 mg/kg", "value": 4960, "unit": "ng/mL"},
      {"measurement": "Tmax", "setting": "[1]; po, IG 10 mg/kg", "value": 2, "unit": "h"},
      {"measurement": "bioavailability", "setting": "[1]; po", "value": 51.7, "unit": "%"},
      {"measurement": "MRT last", "setting": "[1]; po, IG 10 mg/kg", "value": 3.58, "unit": "h"},
      {"measurement": "AUC(0-inf)", "setting": "[1]; IV 1 mg/kg", "value": 4840, "unit": "ng·h/mL"},
      {"measurement": "AUC(0-t)", "setting": "[1]; IV 1 mg/kg", "value": 4840, "unit": "ng·h/mL"},
      {"measurement": "Vd", "setting": "[1]; IV 1 mg/kg", "value": 0.398, "unit": "L/kg"},
      {"measurement": "MRT last", "setting": "[1]; IV 1 mg/kg", "value": 0.817, "unit": "h"}
    ]},
    {"smiles": "CN1CC2(CCN(c3cccc(-c4ccc5nc(-c6cccnc6N)n(-c6ccc(C7(N)CCC7)cc6)c5n4)c3F)CC2)CC1=O", "note": "[Compound 45]", "values": [
      {"measurement": "IC50", "setting": "LNcap cells", "value": 1.7, "unit": "nM"},
      {"measurement": "IC50", "setting": "AKT1 (S473)", "value": 7.7, "unit": "nM"},
      {"measurement": "t1/2z", "setting": "[1]; IG 10 mg/kg", "value": 2.06, "unit": "h"},
      {"measurement": "Cl", "setting": "[1]; IV 1 mg/kg", "value": 0.23},
      {"measurement": "t1/2z", "setting": "[1]; IV 1 mg/kg", "value": 1.159, "unit": "h"},
      {"measurement": "AUC(0-inf)", "setting": "[1]; po, IG 10 mg/kg", "value": 14500, "unit": "ng·h/mL"},
      {"measurement": "AUC(0-t)", "setting": "[1]; po, IG 10 mg/kg", "value": 14500, "unit": "ng·h/mL"},
      {"measurement": "Cmax", "setting": "[1]; po, IG 10 mg/kg", "value": 4020, "unit": "ng/mL"},
      {"measurement": "Tmax", "setting": "[1]; po, IG 10 mg/kg", "value": 0.25, "unit": "h"},
      {"measurement": "bioavailability", "setting": "[1]; po", "value": 34.3, "unit": "%"},
      {"measurement": "MRT last", "setting": "[1]; po, IG 10 mg/kg", "value": 3.95, "unit": "h"},
      {"measurement": "AUC(0-inf)", "setting": "[1]; IV 1 mg/kg", "value": 4340, "unit": "ng·h/mL"},
      {"measurement": "AUC(0-t)", "setting": "[1]; IV 1 mg/kg", "value": 4240, "unit": "ng·h/mL"},
      {"measurement": "Vd", "setting": "[1]; IV 1 mg/kg", "value": 5.42, "unit": "L/kg"},
      {"measurement": "MRT last", "setting": "[1]; IV 1 mg/kg", "value": 1.18, "unit": "h"}
    ]}
  ]
}
